Several values for one entry are separate records, joined by “and”; a condition that tells them apart may be missing. Identical values can stand only once. Like-named read-outs stand apart in the source and are kept apart here. Ends that are not written are not given here.
Experiments:
[1] = test system: E. coli (KpC+1812446) biofilm; details: for FICI: Biofilm
[2] = test system: K. pneumoniae (ATCC13883)
E. coli (KpC1812446) [3] = details: agent alone, BM2 minimal medium
E. coli (KpC1812446) [4] = assay: microbe, parasite or virus in culture; details: Escherichia coli
[5] = test system: E. coli (KpC+1812446) planktonic cells; details: for FICI: Planktonic
[6] = test system: K. pneumoniae (ATCC13883); assay: microbe, parasite or virus in culture; details: Klebsiella pneumoniae
E. coli (KpC+ 2101123) = details: for MIC in Cu(II) supplemented medium: Cu(II) supplemented medium (0.25 μM); for MIC: MH broth, 12 h, 37° C.
[7] = test system: K. pneumoniae (ATCC13883); remark: listed apart in the source
E. coli (ATCC 25922) [8] = test system: E. coli (ATCC 25922)
[9] = test system: K. pneumoniae (KpC+ 1825971); details: for MIC in Cu(II) supplemented medium: Cu(II) supplemented medium (0.25 μM); for MIC: MH broth, 12 h, 37° C.
[10] = test system: P. aeruginosa (ATCC 27853)
[11] = test system: K. pneumoniae (ATCC 13883)
E. coli (KpC+ 1812446) = details: MH broth, 12 h, 37° C.
E. coli (KpC1812446) [12] = details: Table 3, agent alone
[13] = test system: K. pneumoniae (KpC1825971); details: agent alone, BM2 minimal medium
[14] = test system: K. pneumoniae (KpC1825971); details: Table 3, agent alone
E. coli KpC+1812446 = assay type: in vivo, mice; details: for in vivo toxicity: infected Balb/C mice, 5 and 10 mg·Kg^−1
Experimental: Male Balb/C (18-20 g) mice from the Biotério Central do Campus da USP in Ribeirão Preto, São Paulo, were kept in groups of 5 per cage at 22° C. with normal cycles of light and free access to food and water. The care and use of the animals were approved by the Ethics Committee of Universidade Católica Dom Bosco number 019/2016. We assessed the ability of the peptides to protect the mice from lethal systemic infections induced with E. coli KpC+1812446. The mice (n=40) were randomly placed into eight groups of five mice each, and each mouse was injected intraperitoneally with 200 μL of saline solution containing 2×10^7 CFU of E. coli KpC+1812446. Intraperitoneal treatment with 5 or 10 mg·Kg^−1 of each peptide was initiated after one hour of infection and repeated at 24 h intervals for seven days^61. Gentamicin at 10 mg·Kg^−1 of body weight and normal saline were used as positive and negative controls, respectively.

E. coli (ATCC25922) = details: Table 3, agent alone
E. coli (ATCC 25922) [15] = details: agent alone, BM2 minimal medium
[16] = agent alone, BM2 minimal medium
[17] = Cu(II) supplemented medium (0.25 μM)

For `COc1cc(Cc2cnc(N)nc2N)cc(OC)c1OC` [TRI, trimethoprim], the “MBIC Antibiotic alone” value ([1]; Table 7, biofilm, antibiotic alone) was 440 µM, the “MBIC Antibiotic + Peptide” value ([1]; Table 7, biofilm, antibiotic in combination with CM15) was 440 µM and the “MBIC Antibiotic + Peptide” value ([1]; Table 7, biofilm, antibiotic in combination with GGH-CM15) was 220 µM. The “MBIC Antibiotic + Peptide” value ([1]; Table 7, biofilm, antibiotic in combination with VIH-CM15) was 220 µM, the MBIC [2, 16] was greater than 220 µM and the MBIC (E. coli (KpC1812446) [3]) was greater than 220 µM. For the same compound, the MIC (E. coli (KpC1812446) [4]) was greater than 220 µM, the “MBIC Antibiotic alone” value ([5]; Table 8, planktonic cells, antibiotic alone) was 440 µM and the “MBIC Antibiotic + Peptide” value ([5]; Table 8, planktonic cells, antibiotic in combination with CM15) was 55 µM. The “MBIC Antibiotic + Peptide” value ([5]; Table 8, planktonic cells, antibiotic in combination with GGH-CM15) was 110 µM, the “MBIC Antibiotic + Peptide” value ([5]; Table 8, planktonic cells, antibiotic in combination with VIH-CM15) was 220 µM and the MIC [6] was greater than 220 µM.

With “GGHGLFDVIKKVASVIGGL-NH2 [GGH-Citropin1.1]” the “MIC in Cu(II) supplemented medium” value (E. coli (KpC+ 2101123)) was 9 µM, the MIC (E. coli (KpC+ 2101123)) was 9 µM and the MIC ([7]; ATCC13883) was greater than 34 µM. The “MIC in Cu(II) supplemented medium” value (E. coli (ATCC 25922) [8]; ATCC 25922) was 34 µM, the MIC (E. coli (ATCC 25922) [8]; ATCC 25922, 12 h) was 34 µM and the MBIC ([2]; ATCC13883) was greater than 34 µM. The “MIC in Cu(II) supplemented medium” value (S. aureus (ATCC 25923); ATCC 25923) was 9 µM, the MIC (S. aureus (ATCC 25923); ATCC 25923, 12 h) was 9 µM and the “MIC in Cu(II) supplemented medium” value [9] was greater than 34 µM. For the same compound, the MIC [9] was greater than 34 µM, the MIC ([10]; ATCC 27853, 12 h) was greater than 34 µM and the MIC ([11]; ATCC 13883, 12 h) was 34 µM. For the same compound, the MIC (E. coli (KpC+ 1812446)) was 34 µM, the MIC (E. coli (KpC1812446) [12]) was greater than 34 µM and the MIC (MRSA (3730529); 3730529, 12 h) was 17 µM. For the same compound, the MBIC (E. coli (KpC1812446) [3]) was greater than 34 µM.

For GGHKWKLFKKIGAVLKVL [GGH-CM15], the “MIC in Cu(II) supplemented medium” value (E. coli (KpC+ 2101123)) was 2 µM, the MIC (E. coli (KpC+ 2101123)) was 2 µM and the MBIC [13] was 4 µM. For the same compound, the MIC ([7]; Table 3, agent alone) was greater than 32 µM, the FICI ([1]; peptide + AmP) was 2.0 and the FICI ([1]; peptide + CHL) was 2.0. For the same compound, the FICI ([1]; peptide + MER) was 0.27, the FICI ([1]; peptide + STR) was 0.78 and 0.75 and the FICI ([1]; peptide + TRI) was 1.5. For the same compound, the “MIC, TETA” value (E. coli MG1655; cell-impermeable Cu(II) chelator triethylenetetramine (TETA) 200 μM) was 2 µM, the “MIC, TTM” value (E. coli MG1655; cell-permeable Cu(II) chelator tetrathiolmolybdate (TTM) 200 μM) was 32 µM and the “MIC, No Chelator” value (E. coli MG1655; no chelator) was 1 µM. The “MIC in Cu(II) supplemented medium” value (E. coli (ATCC 25922) [8]; [17]) was 2 µM, the MIC (E. coli (ATCC 25922) [8]; MH broth, 12 h, 37° C.) was 2 µM and the MBIC [2, 16] was greater than 32 µM. The “MIC in Cu(II) supplemented medium” value (S. aureus (ATCC 25923); [17]) was 1 µM, the MIC (S. aureus (ATCC 25923); MH broth, 12 h, 37° C.) was 1 µM and the “MIC in Cu(II) supplemented medium” value [9] was 2 µM. It also gave an MIC [9] of 2 µM, an MIC ([10]; MH broth, 12 h, 37° C.) of 1 µM and an MIC ([11]; MH broth, 12 h, 37° C.) of 1 µM. For the same compound, the MIC (E. coli (KpC+ 1812446)) was 2 µM, the MIC [14] was 8 µM and the mouse deaths (E. coli KpC+1812446; 5 and 10 mg·Kg^−1 intraperitoneal) was “all the mice died on the first day”. The in vivo toxicity (E. coli KpC+1812446) was “did not decrease the toxicity of CM15”, the MIC (E. coli (ATCC25922)) was 4 µM and the MIC (E. coli (KpC1812446) [12]) was 8 µM. For the same compound, the MIC (MRSA (3730529); MH broth, 12 h, 37° C.) was 2 µM, the MBIC (E. coli (ATCC 25922) [15]) was 4 µM and the MBIC (E. coli (KpC1812446) [3]) was 4 µM. The FICI ([5]; peptide + AmP) was 1.52 and 1.5, the FICI ([5]; peptide + CHL) was 0.5 and 0.5008 and the FICI ([5]; peptide + MER) was 0.52. The FICI ([5]; peptide + STR) was 1.5 and the FICI ([5]; peptide + TRI) was 0.5.

With “GLFDVIKKVASVIGGL-NH2 [Citropin1.1, GLFDVIKKVASVIGGL-NH2, reference compound]” the “MIC in Cu(II) supplemented medium” value (E. coli (KpC+ 2101123)) was 5 µM, the MIC (E. coli (KpC+ 2101123)) was 5 µM and the MIC ([7]; ATCC13883) was greater than 40 µM. The “MIC in Cu(II) supplemented medium” value (E. coli (ATCC 25922) [8]; ATCC 25922) was 10 µM, the MIC (E. coli (ATCC 25922) [8]; ATCC 25922, 12 h) was 10 µM and the MBIC ([2]; ATCC13883) was greater than 40 µM. The “MIC in Cu(II) supplemented medium” value (S. aureus (ATCC 25923); ATCC 25923) was 3 µM, the MIC (S. aureus (ATCC 25923); ATCC 25923, 12 h) was 3 µM and the “MIC in Cu(II) supplemented medium” value [9] was 20 µM. For the same compound, the MIC [9] was 20 µM, the MIC ([10]; ATCC 27853, 12 h) was greater than 40 µM and the MIC ([11]; ATCC 13883, 12 h) was 20 µM. It also gave an MIC (E. coli (KpC+ 1812446)) of 10 µM, an MIC (E. coli (KpC1812446) [12]) greater than 40 µM and an MIC (MRSA (3730529); 3730529, 12 h) of 10 µM. The MBIC (E. coli (KpC1812446) [3]) was greater than 40 µM.

“KWKLFKKIGAVLKVL [CM15, KWKLFKKIGAVLKVL, reference compound]” was tested, and the mouse deaths (E. coli KpC+1812446; 10 mg·Kg^−1 intraperitoneal) was “led to mouse deaths after two days of treatment” and the in vivo toxicity (E. coli KpC+1812446) was “high in vivo toxicity”.

In the case of “VIHGLFDVIKKVASVIGGL-NH2 [VIH-Citropin1.1]”, the “MIC in Cu(II) supplemented medium” value (E. coli (KpC+ 2101123)) is reported as 16 µM, the MIC (E. coli (KpC+ 2101123)) is reported as 16 µM and the MIC ([7]; ATCC13883) is reported as greater than 33 µM. The “MIC in Cu(II) supplemented medium” value (E. coli (ATCC 25922) [8]; ATCC 25922) was greater than 33 µM, the MIC (E. coli (ATCC 25922) [8]; ATCC 25922, 12 h) was greater than 33 µM and the MBIC ([2]; ATCC13883) was greater than 33 µM. For the same compound, the “MIC in Cu(II) supplemented medium” value (S. aureus (ATCC 25923); ATCC 25923) was 4 µM, the MIC (S. aureus (ATCC 25923); ATCC 25923, 12 h) was 4 µM and the “MIC in Cu(II) supplemented medium” value [9] was greater than 33 µM. It also gave an MIC [9] greater than 33 µM, an MIC ([10]; ATCC 27853, 12 h) greater than 33 µM and an MIC ([11]; ATCC 13883, 12 h) greater than 33 µM. For the same compound, the MIC (E. coli (KpC+ 1812446)) was 33 µM, the MIC (E. coli (KpC1812446) [12]) was greater than 33 µM and the MIC (MRSA (3730529); 3730529, 12 h) was 16 µM. For the same compound, the MBIC (E. coli (KpC1812446) [3]) was greater than 33 µM.
